The subject of assay [1] is wild-type CD34-expressing LT-HSPCs. Briefly: HDR and INDEL frequency at HBB locus with AAV.323 donor by NGS. Type of assay: cell-based, human. The text has this: The AAV-encoded homology donor used for correction is referred to as “AAV.323” and is identified by sequence in Table 8.
For assay [2], the system named is human LT-HSPCs administered to cKit mice. Briefly: Indel formation at HBB locus in mouse bone marrow by TIDE analysis. The settings on record: 16 weeks post engraftment. Type of assay: in vivo. On the procedure:
NHEJ editing of the HBB locus was also evaluated in mouse bone marrow collected at 16 weeks post engraftment. Indel formation at the site of Cas9/gRNA cutting was evaluated by TIDE analysis in bone marrow samples and compared to indel formation of LT-HSPCs prior to administration.
NHEJ editing of the HBB locus was also evaluated in mouse bone marrow collected at 16 weeks post engraftment. Indel formation at the site of Cas9/gRNA cutting was evaluated by TIDE analysis in bone marrow samples and compared to indel formation of LT-HSPCs prior to administration. Regardless of the method used to edit the LT-HSPCs, indel formation was similar at 16 weeks post-engraftment to the level present prior to administration (FIG. 27).

The subject of another assay is CD34-expressing LT-HSPCs. Briefly: Indel formation at HBB locus by TIDE analysis. The assay is classed as cell-based, human. On the procedure: Editing efficiency at the HBB locus was evaluated by measuring indel formation by TIDE analysis. […] This group had 1.7-fold reduction in INDEL frequency relative to cells treated with RNP+AAV,

“i53: polypeptide inhibitor of 53BP1 (SEQ ID NO: 70), introduced as an mRNA-encoded protein (ORF SEQ ID NO: 69)”: the “fold increase in HDR efficiency for incorporation of the AAV.323 gene-edit” value in assay [1] (1 μg i53 mRNA, day 2 post-editing, compared to R02+AAV.323 only, FIG. 30A) was “approximately 1.5 fold”. In assay [1] (i53 vs R02+AAV.323 only, combination vs i53 only, FIG. 30B), the “frequency of INDELs at the R02 cut site” value is “decreased”. Besides, the “level of indel formation in bone marrow” value is on record as “lowest” in assay [2] (Example 5, FIG. 20) and “lowest” in assay [2] (Example 7, FIG. 27). For the same substance, the “risk of indel formation within the target gene locus” value in the assay with CD34-expressing LT-HSPCs (CD34+ HSCs contacted with 53BP1 polypeptide inhibitor, summary statement) is “less than 30%”. Besides, in the assay on CD34-expressing LT-HSPCs (RNP+AAV in the presence of i53, FIG. 11), the “level of indel formation” value is on record as “lowest”.

The values above are taken from patent US20210008161A1, “METHODS AND COMPOSITIONS FOR IMPROVED HOMOLOGY DIRECTED REPAIR” (CRISPR THERAPEUTICS AG, priority 2019, published 2021).
